Numbered stars: 1 amine (or outer) side, 2 acyl side, 3 side chain; on linkers, the order of the positions; unused ones are H or OH. Square brackets hold non-standard residues; d marks the D form. Peptide text beside a SMILES is read from it. * marks the point of attachment. Sta = CC(C)C[C@H](N)[C@@H](O)CC(=O)O; Hydrocinnamoyl = O=C(CCc1ccccc1)*; NHPhenethyl = c1ccc(CCN*)cc1; Isobutyryl = CC(C)C(=O)*; Piperidide = C1CCN(*)CC1; Pyrrolidide = C1CCN(*)C1; Cbz = O=C(OCc1ccccc1)*; PhAc = O=C(Cc1ccccc1)*; CO = O=C([*:1])[*:2]; NHBn = c1ccc(CN*)cc1; Alloc = C=CCOC(=O)*; NHPh = c1ccc(N*)cc1; GABA = NCCCC(=O)O; Ms = CS(=O)(=O)*; NHiPr = CC(C)N*; NHPr = CCCN*
Tests used:
Plasmepsin V = Plasmepsin V (Plasmodium falciparum (isolate 3D7), UniProt Q8I6Z5); assay: Inhibition of Plasmodium falciparum plasmepsin V assessed as cleavage of wtKAHRP fluorogenic substrate
Chain of Plasmepsin V (Q8I6Z5 whole entry): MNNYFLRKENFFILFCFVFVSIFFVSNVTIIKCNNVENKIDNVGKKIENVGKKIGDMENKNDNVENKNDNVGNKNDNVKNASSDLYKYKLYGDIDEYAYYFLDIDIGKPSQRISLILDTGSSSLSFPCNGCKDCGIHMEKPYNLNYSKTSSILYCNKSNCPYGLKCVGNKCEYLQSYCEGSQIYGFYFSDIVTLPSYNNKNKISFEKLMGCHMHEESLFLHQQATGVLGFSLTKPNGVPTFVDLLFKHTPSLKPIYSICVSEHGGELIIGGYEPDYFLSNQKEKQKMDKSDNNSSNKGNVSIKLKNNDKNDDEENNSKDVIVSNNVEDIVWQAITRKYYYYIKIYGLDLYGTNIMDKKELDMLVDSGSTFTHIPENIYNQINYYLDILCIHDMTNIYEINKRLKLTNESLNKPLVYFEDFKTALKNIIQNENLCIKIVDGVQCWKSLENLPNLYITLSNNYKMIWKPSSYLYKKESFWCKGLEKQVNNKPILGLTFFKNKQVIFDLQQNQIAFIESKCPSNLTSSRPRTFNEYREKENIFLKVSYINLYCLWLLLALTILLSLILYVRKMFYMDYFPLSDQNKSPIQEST

Cathepsin D = Cathepsin D (Homo sapiens, UniProt P07339); assay: Inhibition of human cathepsin D assessed as cleavage of wtKAHRP fluorogenic substrate
Chain of Cathepsin D (P07339 65-162 limits assumed): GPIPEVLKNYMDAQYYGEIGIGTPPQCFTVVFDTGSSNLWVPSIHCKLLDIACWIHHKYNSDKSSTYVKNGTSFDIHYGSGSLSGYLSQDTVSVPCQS
Chain of Cathepsin D (P07339 169-412 limits assumed): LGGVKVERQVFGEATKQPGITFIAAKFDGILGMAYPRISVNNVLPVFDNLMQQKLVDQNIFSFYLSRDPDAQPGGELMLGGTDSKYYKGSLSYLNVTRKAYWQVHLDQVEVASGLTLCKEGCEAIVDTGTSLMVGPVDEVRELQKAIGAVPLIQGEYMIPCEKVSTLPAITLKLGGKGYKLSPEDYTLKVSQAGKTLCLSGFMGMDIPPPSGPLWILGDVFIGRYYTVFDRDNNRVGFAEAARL

Beta-secretase 1 = Beta-secretase 1 (Homo sapiens, UniProt P56817); assay: Inhibition of human BACE1 assessed as cleavage of TRF substrate
Chain of Beta-secretase 1 (P56817 whole entry): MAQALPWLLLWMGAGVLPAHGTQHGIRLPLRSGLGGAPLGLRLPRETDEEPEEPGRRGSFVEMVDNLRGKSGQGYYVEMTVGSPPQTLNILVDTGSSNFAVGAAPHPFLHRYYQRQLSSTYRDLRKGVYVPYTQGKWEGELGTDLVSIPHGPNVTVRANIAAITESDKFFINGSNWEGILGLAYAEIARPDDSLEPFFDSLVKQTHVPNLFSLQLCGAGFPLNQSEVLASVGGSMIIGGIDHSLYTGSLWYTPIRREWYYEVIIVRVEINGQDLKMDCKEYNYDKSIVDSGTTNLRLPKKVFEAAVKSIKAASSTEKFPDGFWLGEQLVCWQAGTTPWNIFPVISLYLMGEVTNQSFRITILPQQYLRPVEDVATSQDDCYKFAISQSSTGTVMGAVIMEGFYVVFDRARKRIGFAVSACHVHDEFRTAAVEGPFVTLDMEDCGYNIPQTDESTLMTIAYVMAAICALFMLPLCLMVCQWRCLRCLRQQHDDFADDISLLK

[1] = biological target: Plasmepsin V (Plasmodium falciparum (isolate 3D7)) (UniProt Q8I6Z5); assay: Inhibition of Plasmodium falciparum plasmepsin V assessed as cleavage of wtKAHRP fluorogenic substrate at 1 uM
Chain of Plasmepsin V (Plasmodium falciparum (isolate 3D7)) (Q8I6Z5 whole entry, looked up): as the sequence (Q8I6Z5 whole entry) above

IC50 (Plasmepsin V)	IC50 (Cathepsin D)	IC50 (Beta-secretase 1)	inhibition [1]	SMILES
> 20 µM	–	–	–	CC(C)[C@H](NC(=O)[C@H](C)NC(=O)[C@H](CCCNC(=N)N)NC(=O)OCc1ccccc1)[C@@H](O)CC(=O)NC1CCCCC1
0.772 µM	> 100 µM	> 100 µM	66%	CC(C)C[C@H](NC(=O)[C@H](C)NC(=O)[C@H](CCCNC(=N)N)NC(=O)OCc1ccccc1)[C@@H](O)CC(=O)NC1Cc2ccccc2C1
> 20 µM	–	–	–	C[C@H](NC(=O)[C@H](CCCNC(=N)N)NC(=O)OCc1ccccc1)C(=O)N[C@@H](Cc1ccccc1)[C@@H](O)CC(=O)NC1CCCCC1
–	–	–	13%	CC(C)C[C@H](NC(=O)[C@H](C)NC(=O)[C@H](CCCNC(=N)N)NC(=O)OCc1ccccc1)[C@@H](O)CC(=O)N1CCC(c2ccccc2)CC1
–	–	–	78%	CC(C)C[C@H](NC(=O)[C@H](C)NC(=O)[C@H](CCCNC(=N)N)NS(=O)(=O)CCc1ccccc1)[C@@H](O)CC(=O)NCCc1ccccc1
–	–	–	56%	CC(C)C[C@H](NC(=O)[C@H](C)NC(=O)[C@H](CCCNC(=N)N)NC(=O)OCc1ccccc1)[C@@H](O)CC(=O)NC1CCC1
–	–	–	80%	CC(C)C[C@H](NC(=O)[C@H](C)NC(=O)[C@H](CCCNC(=N)N)NS(=O)(=O)C1CC1)[C@@H](O)CC(=O)NCCc1ccccc1
0.569 µM	> 100 µM	> 100 µM	56%	CC(C)C[C@H](NC(=O)[C@H](C)NC(=O)[C@H](CCCNC(=N)N)NC(=O)OCc1ccccc1)[C@@H](O)CC(=O)NC(C)c1ccccc1 (mixture of isomers)
–	–	–	26%	CCNC(=O)N[C@@H](CCCNC(=N)N)C(=O)N[C@@H](C)C(=O)N[C@@H](CC(C)C)[C@@H](O)CC(=O)NCCc1ccccc1 ({NHEt-CO}-Arg-Ala-[Sta]-NHPhenethyl)
–	–	–	56%	CCCNC(=O)C[C@H](O)[C@H](CC(C)C)NC(=O)[C@H](C)NC(=O)[C@H](CCCNC(=N)N)NC(=O)OCc1ccccc1 (Cbz-Arg-Ala-[Sta]-NHPr)
> 20 µM	–	–	–	CC[C@H](C)[C@H](NC(=O)[C@H](C)NC(=O)[C@H](CCCNC(=N)N)NC(=O)OCc1ccccc1)[C@@H](O)CC(=O)NC1CCCCC1
0.23 µM	4.8 µM	> 100 µM	–	CC(C)C[C@H](NC(=O)[C@H](Cc1ccccc1)NC(=O)[C@H](CCCNC(=N)N)NC(=O)OCc1ccccc1)[C@@H](O)CC(=O)NC1CCCCC1
–	–	–	55%	CC(C)C[C@H](NC(=O)[C@H](C)NC(=O)[C@H](CCCNC(=N)N)NC(=O)OCc1ccccc1)[C@@H](O)CC(=O)NC1CC1
–	–	–	35%	C=CCOC(=O)N[C@@H](CCCNC(=N)N)C(=O)N[C@@H](C)C(=O)N[C@@H](CC(C)C)[C@@H](O)CC(=O)NCCc1ccccc1 (Alloc-Arg-Ala-[Sta]-NHPhenethyl)
–	–	–	45%	CC(C)C[C@H](NC(=O)[C@H](C)NC(=O)[C@H](CCCNC(=N)N)NC(=O)OCc1ccccc1)[C@@H](O)CC(=O)N1CCc2ccccc2C1
0.53 µM	> 100 µM	> 100 µM	60%	CC(C)C[C@H](NC(=O)[C@H](C)NC(=O)[C@H](CCCNC(=N)N)NC(=O)OCc1ccccc1)[C@@H](O)CC(=O)NCc1ccccc1 (Cbz-Arg-Ala-[Sta]-NHBn)
–	–	–	32%	CC(C)C[C@H](NC(=O)[C@H](C)NC(=O)[C@H](CCCNC(=N)N)NC(=O)NCc1ccccc1)[C@@H](O)CC(=O)NCCc1ccccc1 ({NHBn-CO}-Arg-Ala-[Sta]-NHPhenethyl)
–	–	–	65%	CC(C)CCNC(=O)C[C@H](O)[C@H](CC(C)C)NC(=O)[C@H](C)NC(=O)[C@H](CCCNC(=N)N)NC(=O)OCc1ccccc1
2.01 µM	> 100 µM	> 100 µM	20%	CC(C)C[C@H](NC(=O)[C@H](C)NC(=O)[C@H](CCCNC(=N)N)NC(=O)OCc1ccccc1)[C@@H](O)CC(=O)N(C)CCc1ccc(Cl)cc1
–	–	–	49%	CC(C)CNC(=O)C[C@H](O)[C@H](CC(C)C)NC(=O)[C@H](C)NC(=O)[C@H](CCCNC(=N)N)NC(=O)OCc1ccccc1
–	–	–	68%	CC(C)C[C@H](NC(=O)[C@H](C)NC(=O)[C@H](CCCNC(=N)N)NC(=O)CCc1ccccc1)[C@@H](O)CC(=O)NCCc1ccccc1 (Hydrocinnamoyl-Arg-Ala-[Sta]-NHPhenethyl)
–	–	–	51%	CC(C)C[C@H](NC(=O)[C@H](C)NC(=O)[C@H](CCCNC(=N)N)NC(=O)OCc1ccccc1)[C@@H](O)CC(=O)NC1CCCc2ccccc21 (stereo partly specified)
0.967 µM	> 100 µM	> 100 µM	–	CC(=O)N[C@@H](CCCNC(=N)N)C(=O)N[C@@H](C)C(=O)N[C@@H](CC(C)C)[C@@H](O)CC(=O)NC1CCCCC1
–	–	–	42%	CC(=O)N[C@@H](CCCNC(=N)N)C(=O)N[C@@H](C)C(=O)N[C@@H](CC(C)C)[C@@H](O)CC(=O)NCCc1ccccc1 (Ac-Arg-Ala-[Sta]-NHPhenethyl)

IC50 (Plasmepsin V)	IC50 (Cathepsin D)	IC50 (Beta-secretase 1)	inhibition [1]	SMILES
0.348 µM	> 100 µM	> 100 µM	–	CC(C)C[C@H](NC(=O)[C@H](C)NC(=O)[C@H](CCCNC(=N)N)NC(=O)OCc1ccccc1)[C@@H](O)CC(=O)NCCc1ccc(Cl)cc1
–	–	–	27%	CC(C)C[C@H](NC(=O)[C@H](C)NC(=O)[C@H](CCCNC(=N)N)NC(=O)OCc1ccccc1)[C@@H](O)CC(=O)N1CCCCC1 (Cbz-Arg-Ala-[Sta]-Piperidide)
–	–	–	52%	CC(C)C[C@H](NC(=O)[C@H](C)NC(=O)[C@H](CCCNC(=N)N)NC(=O)OCc1ccccc1)[C@@H](O)CC(=O)NC1CCCC1
0.625 µM	> 100 µM	> 100 µM	89%	CC(C)C[C@H](NC(=O)[C@H](C)NC(=O)[C@H](CCCNC(=N)N)NS(=O)(=O)Cc1ccccc1)[C@@H](O)CC(=O)NCCc1ccccc1
–	–	–	13%	CC(C)C[C@H](NC(=O)[C@H](C)NC(=O)[C@H](CCCNC(=N)N)NC(=O)OCc1ccccc1)[C@@H](O)CC(=O)N1CCCC1 (Cbz-Arg-Ala-[Sta]-Pyrrolidide)
–	–	–	42%	CC(C)C[C@H](NC(=O)[C@H](C)NC(=O)[C@H](CCCNC(=N)N)NC(=O)OCc1ccccc1)[C@@H](O)CC(=O)NC(C)C (Cbz-Arg-Ala-[Sta]-NHiPr)
–	–	–	49%	CC(C)C[C@H](NC(=O)[C@H](C)NC(=O)[C@H](CCCNC(=N)N)NC(=O)C(C)C)[C@@H](O)CC(=O)NCCc1ccccc1 (Isobutyryl-Arg-Ala-[Sta]-NHPhenethyl)
–	–	–	59%	CC(C)C[C@H](NC(=O)[C@H](C)NC(=O)[C@H](CCCNC(=N)N)NC(=O)Cc1ccccc1)[C@@H](O)CC(=O)NCCc1ccccc1 (PhAc-Arg-Ala-[Sta]-NHPhenethyl)
–	–	–	75%	CC(C)C[C@H](NC(=O)[C@H](C)NC(=O)[C@H](CCCNC(=N)N)NC(=O)OCc1ccccc1)[C@@H](O)CC(=O)NCCCc1ccccc1
–	–	–	53%	CC(C)C[C@H](NC(=O)[C@H](C)NC(=O)[C@H](CCCNC(=N)N)NS(C)(=O)=O)[C@@H](O)CC(=O)NCCc1ccccc1 (Ms-Arg-Ala-[Sta]-NHPhenethyl)
–	–	–	43%	CC(C)C[C@H](NC(=O)[C@H](C)NC(=O)[C@H](CCCNC(=N)N)NC(=O)C1CCCCC1)[C@@H](O)CC(=O)NCCc1ccccc1
–	–	–	47%	CC(C)COC(=O)N[C@@H](CCCNC(=N)N)C(=O)N[C@@H](C)C(=O)N[C@@H](CC(C)C)[C@@H](O)CC(=O)NCCc1ccccc1
–	–	–	65%	CC(C)C[C@H](NC(=O)[C@H](C)NC(=O)[C@H](CCCNC(=N)N)NC(=O)N(C)C)[C@@H](O)CC(=O)NCCc1ccccc1 ({NMe2-CO}-Arg-Ala-[Sta]-NHPhenethyl)
–	–	–	32%	CC(C)C[C@H](NC(=O)[C@H](C)NC(=O)[C@H](CCCNC(=N)N)NC(=O)OCc1ccccc1)[C@@H](O)CC(=O)N(C)C (Cbz-Arg-Ala-[Sta]-NMe2)
–	–	–	41%	CC(C)C[C@H](NC(=O)[C@H](C)NC(=O)[C@H](CCCNC(=N)N)NC(=O)NC1CCCC1)[C@@H](O)CC(=O)NCCc1ccccc1
> 20 µM	0.043 µM	> 100 µM	–	CC(C)C[C@H](NC(=O)[C@H](C)NC(=O)[C@H](CCc1ccccc1)NC(=O)OCc1ccccc1)[C@@H](O)CC(=O)NC1CCCCC1
> 20 µM	–	–	–	CC(C)C[C@H](NC(=O)[C@H](C)NC(=O)[C@H](CCCCNC(=N)N)NC(=O)OCc1ccccc1)[C@@H](O)CC(=O)NC1CCCCC1
> 20 µM	> 100 µM	> 100 µM	–	CC(C)C[C@H](NC(=O)[C@H](C)NC(=O)[C@H](CCCCN)NC(=O)OCc1ccccc1)[C@@H](O)CC(=O)NC1CCCCC1
–	–	–	30%	CC(C)C[C@H](NC(=O)[C@H](C)NC(=O)[C@H](CCCNC(=N)N)NC(=O)OCc1ccccc1)[C@@H](O)CC(=O)N(C)Cc1ccccc1
–	–	–	30%	CC(C)C[C@H](NC(=O)[C@H](C)NC(=O)[C@H](CCCNC(=N)N)NC(=O)OCc1ccccc1)[C@@H](O)CC(=O)N(C)C(C)c1ccccc1 (stereo partly specified)
–	–	–	63%	CC(C)C[C@H](NC(=O)[C@H](C)NC(=O)[C@H](CCCNC(=N)N)NC(=O)OCc1ccccc1)[C@@H](O)CC(=O)NCC1CCCCC1
–	–	–	11%	CC(C)C[C@H](NC(=O)[C@H](C)NC(=O)[C@H](CCCNC(=N)N)NC(=O)OCc1ccccc1)[C@@H](O)CC(=O)N(C)CCc1ccccc1
–	–	–	53%	CC(C)C[C@H](NC(=O)[C@H](C)NC(=O)[C@H](CCCNC(=N)N)NC(=O)Nc1ccccc1)[C@@H](O)CC(=O)NCCc1ccccc1 ({NHPh-CO}-Arg-Ala-[Sta]-NHPhenethyl)

SMILES	IC50 (Plasmepsin V)	IC50 (Cathepsin D)	IC50 (Beta-secretase 1)	inhibition [1]
CC(=O)N[C@@H](CCCNC(=N)N)C(=O)N[C@@H](C)C(=O)N[C@@H](CC(C)C)[C@@H](O)CC(=O)N[C@@H](CCC(N)=O)C(N)=O (Ac-RA[Sta]Q-NH2)	0.556 µM	> 100 µM	> 100 µM	–
CC(=O)N[C@@H](CCCNC(=N)N)C(=O)N[C@@H](C)C(=O)N[C@@H](CC(C)C)[C@@H](O)CC(=O)NCCCC(N)=O (Ac-RA[Sta][GABA]-NH2)	0.865 µM	> 100 µM	> 100 µM	–
CC(=O)N[C@@H](CCCNC(=N)N)C(=O)N[C@@H](C)C(=O)N[C@@H](CC(C)C)[C@@H](O)CC(=O)N[C@@H](C)C(N)=O (Ac-RA[Sta]A-NH2)	0.613 µM	> 100 µM	> 100 µM	–
